Measurements: PubChem BioAssay (NCI)
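Following 48 hours of exposure in 96-well plates, responses at five concentrations were used to interpolate endpoints linearly. GI50 is the concentration that inhibits growth by half. TGI is the concentration that stops growth completely.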

Key:
Test in all cases: NCI-60 cell line screen, 48 h
[1] = system: HCT-15 colon
[2] = system: NCI-H23 lung
[3] = system: HS 578T breast
[4] = system: MDA-MB-231 breast
[5] = system: ACHN renal
[6] = system: PC-3 prostate
[7] = system: NCI/ADR-RES ovarian
[8] = system: HOP-92 NSCLC
[9] = system: OVCAR-8 ovarian
[10] = system: MDA-MB-435
[11] = system: UO-31 renal
[12] = system: LOX IMVI melanoma
[13] = system: SN12C renal
[14] = system: OVCAR-4 ovarian
[15] = system: SF-539 CNS
[16] = system: UACC-62 melanoma
[17] = system: IGROV1 ovarian
[18] = system: HCT-116 colon
[19] = system: SK-MEL-2 melanoma
[20] = system: T-47D breast
[21] = system: MALME-3M melanoma
[22] = system: DU-145 prostate
[23] = system: MOLT-4 leukemia
[24] = system: SR leukemia
[25] = system: HT29 colon
[26] = system: CCRF-CEM leukemia
[27] = system: CAKI-1 renal
[28] = system: SK-OV-3 ovarian
[29] = system: SNB-75 CNS
[30] = system: UACC-257 melanoma
[31] = system: NCI-H226 lung
[32] = system: A498 renal
[33] = system: COLO 205 colon
[34] = system: HOP-62 NSCLC
[35] = system: A549 NSCLC
[36] = system: SNB-19 CNS
[37] = system: RPMI-8226 leukemia
[38] = system: TK-10 renal
[39] = system: 786-0 renal
[40] = system: KM12 colon
[41] = system: HCC-2998 colon
[42] = system: OVCAR-5 ovarian
[43] = system: BT-549 breast
[44] = system: SK-MEL-28 melanoma
[45] = system: MCF7 breast
[46] = system: K-562 leukemia
[47] = system: OVCAR-3 ovarian
[48] = system: SF-295 CNS
[49] = system: RXF 393 renal
[50] = system: EKVX NSCLC
[51] = system: SK-MEL-5 melanoma
[52] = system: NCI-H460 lung
[53] = system: HL-60(TB) leukemia
[54] = system: SF-268 CNS
[55] = system: SW-620 colon
[56] = system: U251 CNS

## COc1ccc(F)cc1/C=C/C(=O)/C=C(/C=C/c1cc(F)ccc1OC)OB(F)F
[1]
  GI50: 1.27 µM
  TGI: 2930 nM
[2]
  GI50: 1.46 µM
  TGI: 4.05 µM
[3]
  GI50: 3.13 µM
  TGI: > 100 µM
[4]
  GI50: 2.17 µM
  TGI: 6.1 µM
[5]
  GI50: 1.02 µM
  TGI: 2370 nM
[6]
  GI50: 1.5 µM
  TGI: 3.89 µM
[7]
  GI50: 1.66 µM
  TGI: 6.41 µM
[8]
  GI50: 2.04 µM
  TGI: 4.62 µM
[9]
  GI50: 0.513 µM
  TGI: 5.23 µM
[10]
  GI50: 1.47 µM
  TGI: 5.02 µM
[11]
  GI50: 1.13 µM
  TGI: 2470 nM
[12]
  GI50: 1.25 µM
  TGI: 2.56 µM
[13]
  GI50: 1.64 µM
  TGI: 4.83 µM
[14]
  GI50: 2.33 µM
  TGI: > 100 µM
[15]
  GI50: 2.4 µM
  TGI: 6.68 µM
[16]
  GI50: 1.27 µM
  TGI: 2.9 µM
[17]
  GI50: 2040 nM
  TGI: 6.05 µM
[18]
  GI50: 1.39 µM
  TGI: 4.21 µM
[19]
  GI50: 2.55 µM
  TGI: 7 µM
[20]
  GI50: 2.17 µM
  TGI: 96.6 µM
[21]
  GI50: 2.05 µM
  TGI: 9.12 µM
[22]
  GI50: 2.06 µM
  TGI: > 100 µM
[23]
  GI50: 0.321 µM
  TGI: 4.75 µM
[24]
  GI50: 0.481 µM
  TGI: 23.4 µM
[25]
  GI50: 1.85 µM
  TGI: 4.79 µM
[26]
  GI50: 0.261 µM
  TGI: 0.679 µM
[27]
  GI50: 1.14 µM
  TGI: 2.44 µM
[28]
  GI50: 3.48 µM
  TGI: > 100 µM
[29]
  GI50: 1.61 µM
  TGI: 4.86 µM
[30]
  GI50: 2.03 µM
  TGI: 7.48 µM

## Cn1c(-c2c(N)n(Cc3ccc(C(F)(F)F)cc3)c3nc(C#N)c(C#N)nc23)nc2ccccc21
[31]
  GI50: 17.2 µM
  TGI: 36.2 µM
[32]
  GI50: 5.92 µM
  TGI: 25.3 µM
[33]
  GI50: 18.3 µM
  TGI: 34.1 µM
[34]
  GI50: 14.8 µM
  TGI: 33.2 µM
[1]
  GI50: 20.3 µM
  TGI: > 100000 nM
[2]
  GI50: 24.4 µM
  TGI: 70.2 µM
[35]
  GI50: 32.8 µM
  TGI: > 100 µM
[4]
  GI50: 14.8 µM
  TGI: 31.8 µM
[5]
  GI50: 22 µM
  TGI: > 100000 nM
[6]
  GI50: 6.95 µM
  TGI: 69.6 µM
[7]
  GI50: 30.2 µM
  TGI: > 100 µM
[36]
  GI50: 11.7 µM
  TGI: 73 µM
[8]
  GI50: 6.71 µM
  TGI: 38.3 µM
[9]
  GI50: 32 µM
  TGI: 97.5 µM
[37]
  GI50: 5.69 µM
  TGI: 26.4 µM
[10]
  GI50: 20.7 µM
  TGI: 49.2 µM
[38]
  GI50: 23.6 µM
  TGI: 80.6 µM
[39]
  GI50: 18.3 µM
  TGI: 40.2 µM
[11]
  GI50: 21.7 µM
  TGI: > 100000 nM
[40]
  GI50: 18.2 µM
  TGI: 38.2 µM
[41]
  GI50: 24.5 µM
  TGI: 56.4 µM
[42]
  GI50: 19.8 µM
  TGI: 44.2 µM
[12]
  GI50: 14.8 µM
  TGI: 30.2 µM
[13]
  GI50: 24.2 µM
  TGI: 71.6 µM
[43]
  GI50: 20.8 µM
  TGI: 86.6 µM
[14]
  GI50: 32.7 µM
  TGI: > 100 µM
[44]
  GI50: 14.3 µM
  TGI: 29.1 µM
[45]
  GI50: 16 µM
  TGI: 57.4 µM
[46]
  GI50: 13.4 µM
  TGI: 44.6 µM
[15]
  GI50: 19.9 µM
  TGI: 42.8 µM
[47]
  GI50: 6.44 µM
  TGI: 22.3 µM
[48]
  GI50: 11.2 µM
  TGI: 29.8 µM
[49]
  GI50: 11.3 µM
  TGI: 25.3 µM
[16]
  GI50: 11.2 µM
  TGI: 25.5 µM
[50]
  GI50: 13.8 µM
  TGI: > 100 µM
[51]
  GI50: 16.3 µM
  TGI: 31.5 µM
[18]
  GI50: 13.1 µM
  TGI: 26.9 µM
[19]
  GI50: 19.5 µM
  TGI: 60.3 µM
[20]
  GI50: 8.76 µM
  TGI: 74.7 µM
[52]
  GI50: 14.5 µM
  TGI: 40.3 µM
[21]
  GI50: 21.9 µM
  TGI: 63.6 µM
[22]
  GI50: 25.3 µM
  TGI: 65.8 µM
[23]
  GI50: 12.8 µM
  TGI: 40.5 µM
[53]
  GI50: 16.7 µM
  TGI: 39.3 µM
[24]
  GI50: 20.6 µM
  TGI: 47.3 µM
[25]
  GI50: 24.4 µM
  TGI: 73.1 µM
[26]
  GI50: 17.2 µM
  TGI: 45.7 µM
[27]
  GI50: 17.4 µM
  TGI: 57.3 µM
[28]
  GI50: 34.7 µM
  TGI: > 100 µM
[54]
  GI50: 19.7 µM
  TGI: 56.5 µM
[55]
  GI50: 19.5 µM
  TGI: 42.2 µM
[29]
  GI50: 17 µM
  TGI: 78.3 µM
[30]
  GI50: 28.1 µM
  TGI: 65.2 µM
[56]
  GI50: 12.5 µM
  TGI: 30.4 µM
